Laboratory results from ChEMBL document CHEMBL1201862, “PubChem BioAssay data set” (2004).
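Compound exposure: 48 hours, 5 concentrations, 96-well plates. GI50 marks 50% less growth.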 The source made the active and inactive calls. Cut-off read from the data, not from the text of the source: active = GI50 up to about 1.1 µM and inactive = higher.

What was measured:
Experiment in all cases: NCI-60 cell line screen, 48 h
786-0 = system: 786-0
OVCAR-8 = system: OVCAR-8
EKVX = system: EKVX
COLO 205 = system: COLO 205
SK-MEL-28 = system: SK-MEL-28
UO-31 = system: UO-31
UACC-62 = system: UACC-62
CCRF-CEM = system: CCRF-CEM
HOP-62 = system: HOP-62
SNB-75 = system: SNB-75
SF-268 = system: SF-268
HCT-15 = system: HCT-15
A549 = system: A549
RXF 393 = system: RXF 393
U-251 = system: U-251
RPMI-8226 = system: RPMI-8226
SF-539 = system: SF-539
OVCAR-5 = system: OVCAR-5

Compound	GI50 (786-0)	GI50 (OVCAR-8)	GI50 (EKVX)	GI50 (COLO 205)	GI50 (SK-MEL-28)	GI50 (UO-31)	GI50 (UACC-62)	GI50 (CCRF-CEM)	GI50 (HOP-62)	GI50 (SNB-75)	GI50 (SF-268)	GI50 (HCT-15) [µM]	GI50 (A549)	GI50 (RXF 393)	GI50 (U-251)	GI50 (RPMI-8226)	GI50 (SF-539)	GI50 (OVCAR-5)
Cc1ccccc1NC(=O)CSc1nnc(-c2ccc(/N=C\c3ccc(Cl)cc3)cc2)o1	> 100 µM (inactive)	> 100 µM (inactive)	> 100 µM (inactive)	> 100 µM (inactive)	> 100 µM (inactive)	> 100 µM (inactive)	> 100 µM (inactive)	> 100 µM (inactive)	> 100 µM (inactive)	> 100 µM (inactive)	> 100 µM (inactive)	> 100	> 100 µM (inactive)	> 100 µM (inactive)	> 100 µM (inactive)	> 100 µM (inactive)	–	–
CCCCc1c2c(nc3c1CCCC3=O)CCCC2	> 100 µM (inactive)	> 100 µM (inactive)	> 100 µM (inactive)	> 100 µM (inactive)	> 100 µM (inactive)	> 100 µM (inactive)	–	> 100 µM (inactive)	> 100 µM (inactive)	–	> 100 µM (inactive)	> 100	> 100 µM (inactive)	–	> 100 µM (inactive)	> 100 µM (inactive)	> 100 µM (inactive)	–
COC(c1cccc(C(O)(C(F)(F)F)C(F)(F)F)c1)(C(F)(F)F)C(F)(F)F	17.6 µM (inactive)	24.6 µM (inactive)	17.9 µM (inactive)	19.3 µM (inactive)	> 10 µM (inactive)	19.9 µM (inactive)	14.3 µM (inactive)	–	19.1 µM (inactive)	17.5 µM (inactive)	23.7 µM (inactive)	19.1	16.6 µM (inactive)	20.4 µM (inactive)	18.3 µM (inactive)	–	19.2 µM (inactive)	18.4 µM (inactive)
O=C1C(c2ccccc2)=[N+]([O-])c2cc([N+](=O)[O-])c(/C(Cl)=C/c3ccccc3)cc21	29.9 µM (inactive)	16.1 µM (inactive)	25.7 µM (inactive)	17.3 µM (inactive)	27.4 µM (inactive)	41.8 µM (inactive)	30.6 µM (inactive)	10.5 µM (inactive)	–	31.4 µM (inactive)	35.2 µM (inactive)	–	40.1 µM (inactive)	22.9 µM (inactive)	18.6 µM (inactive)	13.9 µM (inactive)	23.8 µM (inactive)	31.2 µM (inactive)
COc1ccc(N[S+]([O-])C2CCCCC2)cc1 (stereo not drawn)	> 100 µM (inactive)	> 100 µM (inactive)	> 100 µM (inactive)	> 100 µM (inactive)	> 100 µM (inactive)	> 100 µM (inactive)	–	> 100 µM (inactive)	91.8 µM (inactive)	> 100 µM (inactive)	> 100 µM (inactive)	> 100	> 100 µM (inactive)	> 100 µM (inactive)	> 100 µM (inactive)	> 100 µM (inactive)	> 100 µM (inactive)	> 100 µM (inactive)
CN(C)c1ccc(/C=C/C(=O)O)cc1	–	> 100 µM (inactive)	> 100 µM (inactive)	> 100 µM (inactive)	–	> 100 µM (inactive)	> 100 µM (inactive)	> 100 µM (inactive)	> 100 µM (inactive)	> 100 µM (inactive)	> 100 µM (inactive)	> 100	> 100 µM (inactive)	–	–	> 100 µM (inactive)	> 100 µM (inactive)	> 100 µM (inactive)
O=C1NP23(OCCO2)Oc2ccccc2C3(C(F)(F)F)O1 (stereo not drawn)	–	> 100 µM (inactive)	–	–	> 100 µM (inactive)	–	> 100 µM (inactive)	> 100 µM (inactive)	–	> 100 µM (inactive)	> 100 µM (inactive)	72.3	> 100 µM (inactive)	–	> 100 µM (inactive)	–	> 100 µM (inactive)	–
